Assay results: patent US12528801B2 (Givaudan SA, priority 2019, dated 2026)

Molecular target: T1, hTRPM8 (Homo sapiens, UniProt Q7Z2W7)
T1 construct: expressed in transfected cells
Experiment: Assay on TRPM8 modulators: calcium imaging (Fluo-4, Flexstation) in HEK293 cell line stably expressing hTRPM8
Assay type: cell-based
Details: HEK293 cells stably expressing hTRPM8; calcium influx, Fluo-4, Flexstation 3; sigmoidal dose-response fit
In short: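 HEK293 cells stably expressing hTRPM8 were loaded with Fluo-4 AM plus probenecid and kept in HEPES buffer, pH 7.4. Calcium influx to serially diluted compounds was recorded for 120 s. Maximal activation was referenced to solvent control and 31.6 μM menthol, with EC values from sigmoidal dose-response fits.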

T1 sequence (Q7Z2W7 whole entry): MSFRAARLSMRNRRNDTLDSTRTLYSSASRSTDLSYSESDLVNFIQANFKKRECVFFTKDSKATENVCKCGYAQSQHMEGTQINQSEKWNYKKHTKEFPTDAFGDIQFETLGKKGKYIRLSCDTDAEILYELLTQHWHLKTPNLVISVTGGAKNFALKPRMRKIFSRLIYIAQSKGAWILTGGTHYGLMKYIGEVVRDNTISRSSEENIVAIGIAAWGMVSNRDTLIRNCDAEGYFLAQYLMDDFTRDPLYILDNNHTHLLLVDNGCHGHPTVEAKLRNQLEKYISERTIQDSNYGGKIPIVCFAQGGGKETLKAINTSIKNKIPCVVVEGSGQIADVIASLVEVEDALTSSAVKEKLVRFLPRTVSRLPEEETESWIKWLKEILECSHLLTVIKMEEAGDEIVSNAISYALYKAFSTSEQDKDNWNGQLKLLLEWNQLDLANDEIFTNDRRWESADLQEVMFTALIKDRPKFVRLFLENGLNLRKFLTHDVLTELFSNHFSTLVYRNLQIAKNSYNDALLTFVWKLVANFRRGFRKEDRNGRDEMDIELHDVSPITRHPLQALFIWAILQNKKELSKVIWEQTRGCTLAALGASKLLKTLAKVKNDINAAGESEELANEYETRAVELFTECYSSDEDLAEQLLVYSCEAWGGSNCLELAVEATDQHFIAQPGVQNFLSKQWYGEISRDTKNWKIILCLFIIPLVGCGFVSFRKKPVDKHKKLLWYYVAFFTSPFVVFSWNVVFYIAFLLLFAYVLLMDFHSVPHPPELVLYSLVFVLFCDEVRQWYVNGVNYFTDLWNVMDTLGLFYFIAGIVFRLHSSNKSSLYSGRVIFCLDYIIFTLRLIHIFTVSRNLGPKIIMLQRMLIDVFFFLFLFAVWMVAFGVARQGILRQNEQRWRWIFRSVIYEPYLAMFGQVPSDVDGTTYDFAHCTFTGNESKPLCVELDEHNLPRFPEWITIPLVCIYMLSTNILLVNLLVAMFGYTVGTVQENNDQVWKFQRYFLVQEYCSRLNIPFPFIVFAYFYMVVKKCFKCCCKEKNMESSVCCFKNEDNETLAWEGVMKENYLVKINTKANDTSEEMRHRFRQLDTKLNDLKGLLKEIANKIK

Row | EC50 [µM] | Compound
1 | 0.05 to 0.3 | CNCC(=O)Nc1ccc(-c2cnc(C3CCCCN3C(=O)C(C)SC)[nH]2)cc1 (centres unmarked) [Compound 100, 2-(methylamino)-N-(4-(2-(1-(2-(methylthio)propanoyl)piperidin-2-yl)-1H-imidazol-5-yl)phenyl)acetamide]
2 | 0.05 to 0.3 | Cc1ccc(-c2cnc(C3CCCCN3C(=O)C(C)[S+](C)[O-])[nH]2)cc1 (centres unmarked) [Compound 101, 2-(methylsulfinyl)-1-(2-(5-(p-tolyl)-1H-imidazol-2-yl)piperidin-1-yl)propan-1-one]
3 | 1 to 35 | CS(=O)(=O)CC(=O)N1CCCCC1c1nc(-c2ccccc2)c[nH]1 (centres unmarked) [Compound 102, 2-(methylsulfonyl)-1-(2-(4-phenyl-1H-imidazol-2-yl)piperidin-1-yl)ethan-1-one]
4 | 1 to 35 | CC(C(=O)N1CCCCC1c1nc(-c2ccccc2)c[nH]1)S(C)(=O)=O (centres unmarked) [Compound 103, 2-(methylsulfonyl)-1-(2-(4-phenyl-1H-imidazol-2-yl)piperidin-1-yl)propan-1-one]
5 | < 0.05 | CSC(C)C(=O)N1CCCCC1c1nnn(-c2ccc(C)cc2)n1 (centres unmarked) [Compound 104, 2-(methylthio)-1-(2-(2-(p-toly)-2H-tetrazol-5-yl)piperidin-1-yl)propan-1-one]
6 | 0.3 to 1 | CSC(C)C(=O)N1CCCCC1c1nc(-c2ccccc2)no1 (centres unmarked) [Compound 105, 2-(methylthio)-1-(2-(3-phenyl-1,2,4-oxadiazol-5-yl)piperidin-1-yl)propan-1-one]
7 | 0.05 to 0.3 | CSC(C)C(=O)N1CCCCC1c1nc(-c2cnn(C(F)(F)F)c2)c[nH]1 (centres unmarked) [Compound 106, 2-(methylthio)-1-(2-(4-(1-(trifluoromethyl)-1H-pyrazol-4-yl)-1H-imidazol-2-yl)piperidin-1-yl)propan-1-one]
8 | 1 to 35 | CSC(C)C(=O)N1CCCCC1c1nc(-c2ccc(CN3CCOCC3)cc2)c[nH]1 (centres unmarked) [Compound 107, 2-(methylthio)-1-(2-(4-(4-(morpholinomethyl)phenyl)-1H-imidazol-2-yl)piperidin-1-yl)propan-1-one]
9 | < 0.05 | CSC(C)C(=O)N1CCCCC1c1nc(-c2ccc(C(F)(F)F)o2)c[nH]1 (centres unmarked) [Compound 108, 2-(methylthio)-1-(2-(4-(5-(trifluoromethyl)furan-2-yl)-1H-imidazol-2-yl)piperidin-1-yl)propan-1-one]
10 | < 0.05 | CSC(C)C(=O)N1CCCCC1c1nc(-c2ccc(C(F)(F)F)s2)c[nH]1 (centres unmarked) [Compound 109, 2-(methylthio)-1-(2-(4-(5-(trifluoromethyl)thiophen-2-yl)-1H-imidazol-2-yl)piperidin-1-yl)propan-1-one]
11 | < 0.05 | CSC(C)C(=O)N1CCCCC1c1nc(-c2csc(C)c2)c[nH]1 (centres unmarked) [Compound 110, 2-(methylthio)-1-(2-(4-(5-methylthiophen-3-yl)-1H-imidazol-2-yl)piperidin-1-yl)propan-1-one]
12 | 0.05 to 0.3 | CSC(C)C(=O)N1CCCCC1c1nc(-c2cccc(C)c2)c[nH]1 (centres unmarked) [Compound 111, 2-(methylthio)-1-(2-(4-(m-tolyl)-1H-imidazol-2-yl)piperidin-1-yl)propan-1-one]
13 | 0.05 to 0.3 | CSC(C)C(=O)N1CCCCC1c1nc(-c2ccccc2C)c[nH]1 (centres unmarked) [Compound 112, 2-(methylthio)-1-(2-(4-(o-tolyl)-1H-imidazol-2-yl)piperidin-1-yl)propan-1-one]
14 | 0.3 to 1 | CSC(C)C(=O)N1CCCCC1c1nc(-c2cccnc2)c[nH]1 (centres unmarked) [Compound 113, 2-(methylthio)-1-(2-(4-(pyridin-3-yl)-1H-imidazol-2-yl)piperidin-1-yl)propan-1-one]
15 | 0.3 to 1 | CSC(C)C(=O)N1CCCCC1c1nc(-c2ccncc2)c[nH]1 (centres unmarked) [Compound 114, 2-(methylthio)-1-(2-(4-(pyridin-4-yl)-1H-imidazol-2-yl)piperidin-1-yl)propan-1-one]
16 | 1 to 35 | CSC(C)C(=O)N1CCCCC1c1nc(-c2cncnc2)c[nH]1 (centres unmarked) [Compound 115, 2-(methylthio)-1-(2-(4-(pyrimidin-5-yl)-1H-imidazol-2-yl)piperidin-1-yl)propan-1-one]
17 | 0.3 to 1 | CSC(C)C(=O)N1CCCCC1c1nc(-c2ccc3nccnc3c2)c[nH]1 (centres unmarked) [Compound 116, 2-(methylthio)-1-(2-(4-(quinoxalin-6-yl)-1H-imidazol-2-yl)piperidin-1-yl)propan-1-one]
18 | 0.05 to 0.3 | CSC(C)C(=O)N1CCCCC1c1nc(-c2ccsc2)c[nH]1 (centres unmarked) [Compound 117, 2-(methylthio)-1-(2-(4-(thiophen-3-yl)-1H-imidazol-2-yl)piperidin-1-yl)propan-1-one]
19 | 0.3 to 1 | CSCC(=O)N1CCCCC1c1nc(-c2ccccc2)c[nH]1 (centres unmarked) [Compound 118, 2-(methylthio)-1-(2-(4-phenyl-1H-imidazol-2-yl)piperidin-1-yl)ethan-1-one]
20 | 0.3 to 1 | CSC(C)C(=O)N1CCCCC1c1ncc(-c2ccccc2C(F)(F)F)[nH]1 (centres unmarked) [Compound 119, 2-(methylthio)-1-(2-(5-(2-(trifluoromethyl)phenyl)-1H-imidazol-2-yl)piperidin-1-yl)propan-1-one]
21 | < 0.05 | CSC(C)C(=O)N1CCCCC1c1ncc(-c2ccc(F)c(F)c2F)[nH]1 (centres unmarked) [Compound 120, 2-(methylthio)-1-(2-(5-(2,3,4-trifluorophenyl)-1H-imidazol-2-yl)piperidin-1-yl)propan-1-one]

Row | EC50 [µM] | Compound
22 | < 0.05 | CSC(C)C(=O)N1CCCCC1c1ncc(-c2cc(F)c(F)cc2F)[nH]1 (centres unmarked) [Compound 121, 2-(methylthio)-1-(2-(5-(2,4,5-trifluorophenyl)-1H-imidazol-2-yl)piperidin-1-yl)propan-1-one]
23 | 0.05 to 0.3 | CSC(C)C(=O)N1CCCCC1c1ncc(-c2cccc(C(F)(F)F)c2)[nH]1 (centres unmarked) [Compound 122, 2-(methylthio)-1-(2-(5-(3-(trifluoromethyl)phenyl)-1H-imidazol-2-yl)piperidin-1-yl)propan-1-one]
24 | < 0.05 | CSC(C)C(=O)N1CCCCC1c1ncc(-c2ccc(OC(F)(F)F)cc2)[nH]1 (centres unmarked) [Compound 123, 2-(methylthio)-1-(2-(5-(4-(trifluoromethoxy)phenyl)-1H-imidazol-2-yl)piperidin-1-yl)propan-1-one]
25 | < 0.05 | CCCc1ccc(-c2cnc(C3CCCCN3C(=O)C(C)SC)[nH]2)cc1 (centres unmarked) [Compound 125, 2-(methylthio)-1-(2-(5-(4-propylphenyl)-1H-imidazol-2-yl)piperidin-1-yl)propan-1-one]
26 | < 0.05 | C=Cc1ccc(-c2cnc(C3CCCCN3C(=O)C(C)SC)[nH]2)cc1 (centres unmarked) [Compound 126, 2-(methylthio)-1-(2-(5-(4-vinylphenyl)-1H-imidazol-2-yl)piperidin-1-yl)propan-1-one]
27 | 0.3 to 1 | CSC(C)C(=O)N1CCCCC1c1nnc(-c2ccc(C)cc2)o1 (centres unmarked) [Compound 128, 2-(methylthio)-1-(2-(5-(p-tolyl)-1,3,4-oxadiazol-2-yl)piperidin-1-yl)propan-1-one]
28 | < 0.05 | CSC(C)C(=O)N1CCCCCC1c1ncc(-c2ccc(C)cc2)[nH]1 (centres unmarked) [Compound 129, 2-(methylthio)-1-(2-(5-(p-tolyl)-1H-imidazol-2-yl)azepan-1-yl)propan-1-one]
29 | < 0.05 | CSC(C)C(=O)N1CCCCC1c1nnc(-c2ccc(C)cc2)[nH]1 (centres unmarked) [Compound 131, 2-(methylthio)-1-(2-(5-(p-tolyl)-4H-1,2,4-triazol-3-yl)piperidin-1-yl)propan-1-one]
30 | 0.05 to 0.3 | CSC(C)C(=O)N1CCCCC1c1cc(-c2ccc(C)cc2)on1 (centres unmarked) [Compound 132, 2-(methylthio)-1-(2-(5-(p-toly)isoxazol-3-yl)piperidin-1-yl)propan-1-one]
31 | < 0.05 | CSC(C)C(=O)N1CCCCC1c1ncc(-c2ccc(C)cc2)o1 (centres unmarked) [Compound 133, 2-(methylthio)-1-(2-(5-(p-tolyl)oxazol-2-yl)piperidin-1-yl)propan-1-one]
32 | < 0.05 | CSC(C)C(=O)N1CCCCC1c1ncc(-c2ccc(C)cc2)s1 (centres unmarked) [Compound 134, 2-(methylthio)-1-(2-(5-(p-tolyl)thiazol-2-yl)piperidin-1-yl)propan-1-one]
33 | 1 to 35 | CSC(C)C(=O)N1CCC[C@@H]1c1ncc(-c2ccccc2)[nH]1 (stereo partly drawn) [Compound 136, 2-(methylthio)-1-((R)-2-(5-phenyl-1H-imidazol-2-yl)pyrrolidin-1-yl)propan-1-one]
34 | 0.05 to 0.3 | CSC(C)C(=O)N1CCCCC1c1nnc(-c2ccccc2)[nH]1 (centres unmarked) [Compound 137, 2-(methylthio)-1-(2-(5-phenyl-4H-1,2,4-triazol-3-yl)piperidin-1-yl)propan-1-one]
35 | 0.3 to 1 | CSC(C)C(=O)N1CCCCC1c1ncc(-c2ccccc2)o1 (centres unmarked) [Compound 138, 2-(methylthio)-1-(2-(5-phenyloxazol-2-yl)piperidin-1-yl)propan-1-one]
36 | 0.05 to 0.3 | CSC(C)C(=O)N1CSCC1c1ncc(-c2ccc(C)cc2)[nH]1 (centres unmarked) [Compound 139, 2-(methylthio)-1-(4-(5-(p-tolyl)-1H-imidazol-2-yl)thiazolidin-3-yl)propan-1-one]
37 | < 0.05 | C=C(C)C(C)(C)C(=O)N1CCCCC1c1ncc(-c2ccc(C)cc2)[nH]1 (centres unmarked) [Compound 140, 2,2,3-trimethyl-1-(2-(5-(p-tolyl)-1H-imidazol-2-yl)piperidin-1-yl)but-3-en-1-one]
38 | < 0.05 | Cc1ccc(-c2cnc(C3CCCCN3C(=O)C(C)(C)C(C)C)[nH]2)cc1 (centres unmarked) [Compound 141, 2,2,3-trimethyl-1-(2-(5-(p-tolyl)-1H-imidazol-2-yl)piperidin-1-yl)butan-1-one]
39 | < 0.05 | C=CC(C)(C)C(=O)N1CCCCC1c1ncc(-c2ccc(C)cc2)[nH]1 (centres unmarked) [Compound 142, 2,2-dimethyl-1-(2-(5-(p-tolyl)-1H-imidazol-2-yl)piperidin-1-yl)but-3-en-1-one]
40 | < 0.05 | CCC(C)(C)C(=O)N1CCCCC1c1ncc(-c2ccc(C)cc2)[nH]1 (centres unmarked) [Compound 143, 2,2-dimethyl-1-(2-(5-(p-tolyl)-1H-imidazol-2-yl)piperidin-1-yl)butan-1-one]
41 | 1 to 35 | COCC(OC)C(=O)N1CCCCC1c1nc(-c2ccccc2)c[nH]1 (centres unmarked) [Compound 144, 2,3-dimethoxy-1-(2-(4-phenyl-1H-imidazol-2-yl)piperidin-1-yl)propan-1-one]
